In US20250236617A1, “BICYCLIC TETRAHYDROTHIAZEPINE DERIVATIVES” (Hoffmann-La Roche Inc., priority 2022, published 2025):

Assays:
primary human T-cells [1] = assay: IL2 secretion measurements in CD3-stimulated T-cells; format: cell-based; details: CD3 condition; for Emax IL2 (% activation): 24 hours, 20 μM reference compound A1 = 100%; for EC50: IL2 secretion after 24 hours, read-out: Tcell IL2 CD3 EC50
Description: As readouts for T-cell activation, 1L2 secretion after 24 hours and proliferation after 5 days was measured. Increases in 1L2 secretion and proliferation upon compound treatment were assessed as the % of the maximum of reference compound A1. WO 2016/139181 discloses reference compound A1 as example 70. As a counter screen and to make sure that no unwanted TCR-independent activation was triggered, PBS conditions were run for all compounds.
Expanded primary human T-cells were thawed and cultured in RPMI 1640 (Gibco, #61870-010)+5% human serum (HS, Sigma, #H3667)+1 mM Sodium Pyruvate (Gibco, #11360-039)+50 μM 2-mercaptoethanol (Gibco, #31350-010) and 1× Pen-Strep (Life Technologies, #15140122) medium at density of 2 Mio/ml for 3 hours in 5% CO2, 37° C. and 95% humidity. For coating of plates, […] or PBS++ with CD3 antibody (concentration depending on donor and determined by CD3 titrations) was added 100 μl/well to Poly-D Lysine coated 96-well plates. Plates were sealed and incubated at room temperature for 3 hours on a table-top rocking platform. After incubation, plates were washed once with PBS−− and filled with 40 μl/well culture medium only. Compounds were then added (see next section) to medium only plates. After 3 hours of culturing the T-cells, cells were filtered through a cell strainer (Miltenyi Biotech, #130-041-407), counted again and concentration was adjusted to 1.25 Mio/ml.
Cells were then seeded 80 μl/well to the 40 μl/well including dispensed compounds according to plate layout. By adding cells, compounds were further diluted 1:3, and resulting in 100 k cells/120 μl/well. After 24 hours 40 μl of supernatant was collected carefully from the top while not disturbing the cells and transferred into a round bottom 96 well plate. Collected and frozen supernatant was used for detection of IL2 using the IL-2 Human ProQuantum Immunoassay Kit (Invitrogen) or using the Human IL-2 ELISA Kit (Thermo Fisher).
(§1) Compounds were added in a 5 or 6 pt dose response with the Tecan D300e Digital Dispenser, all conditions 3 times more concentrated than the end-concentration, since cells are added afterwards (80 μl cells to 40 μl prepared medium with treatment). The DR was starting at 20 μM or 10 μM final top concentration and a dilution factor of 3.333. The positive control was the reference compound A1 that was added in a dose response as well, additionally to 3 wells of only 20 μM representing the positive stimulator control. All wells were normalized with DMSO to a final concentration of 0.6% (0.2% end-concentration).
The immunoassay is done following the manufacturer's manual (Invitrogen, #A35603). Additional information: For the immunoassay, MicroAmp™ EnduraPlate™ Optical 384-Well plates are used. Frozen supernatant is thawed and centrifuged for 5 minutes at 1000×g, both steps at 4° C. After centrifugation, required sample amount is taken from the top, and in a separate LightCycler V-bottom plate (working plate) diluted with assay dilution buffer, dilution factor depending on the PBS or CD3 condition but at least 1:3. IL-2 standard and blanks are prepared in the same V-bottom plate, standard with a range of […] (extended version). After preparation, 5 μl of sample dilutions or standard/blanks are transferred to the optical 384-well plate (assay plate) and the 10 μl reaction protocol is being followed. For measurement, the QuantStudio 12K Flex system is used. Raw data is extracted and IL-2 concentrations are calculated with the Thermo Fisher online app (apps.thermofisher.com/apps/proquantum).
ELISA is done following the manufacturer's manual (Thermo Fisher Scientific, #88-7025-88). Additional information: For the ELISA Nunc MaxiSorp 96 well plates are used. Frozen supernatant is thawed and centrifuged for 5 minutes at 1000×g, both steps at 4° C. […]

primary human T-cells [2] = assay: T-cell proliferation assay (CellTiter-Glo); format: cell-based; details: CD3 condition, proliferation after 5 days, CellTiter-Glo, read-out: Tcell Proliferation CD3 EC50
Description: For coating of plates, PBS++ only or PBS++ with CD3 antibody (concentration depending on donor and determined by CD3 titrations) is added 100 μl/well to Poly-D Lysine coated 96-well plates. Plates are sealed and incubated at room temperature for 3 hours on a table-top rocking platform. After incubation, plates are washed once with PBS−− and filled with 40 μl/well culture medium only. Compounds are then added (see next section) to medium only plates. After 3 hours of culturing the T-cells, cells are filtered through a cell strainer (Miltenyi Biotech, #130-041-407), counted again and concentration is adjusted to 1.25 Mio/ml.
Cells are then seeded 80 μl/well to the 40 μl/well including dispensed compounds according to plate layout. By adding cells, compounds are further diluted 1:3, and resulting in 100 k cells/120 μl/well. After 48 hours 40 μl of supernatant is collected carefully from the top while not disturbing the cells. Cells are assessed for proliferation 5 days later by measuring […] using CellTiterGlo (Promega).
as §1, with “The DR was starting at 20 μM or 10 μM final top concentration and a dilution factor of 3.333.” left out
After 5 days, for detection of ATP which is directly proportional to the number of cells present per well, the CellTiter-Glo® 2.0 Reagent is used. After visual control for toxicity or precipitations of the tested compounds, the plates are equilibrated to room temperature for 45 minutes. CellTiter-Glo® 2.0 Reagent is equilibrated to room temperature as well. After equilibration, an equal amount of CellTiter-Glo reagent is added to the cells (80 μl/well) with an electronic multichannel pipette. Plates are placed on a rocking platform for 15 minutes at room temperature. After incubation, the bottom of the plates is sealed with backing tape. Luminescence is measured with PHERAstar FSX (interval time 0.5 sec, gain 3000, focal height 15 mm) and exported as CSV file for analysis in Genedata screener.
Calculations and Data Reporting CD3 and PBS plates were analysed separately in Genedata Screener using Roche Normalization PCT_POS_CTRL with DMSO set as Neutral Control and 20 μM of the reference compound A1 set as Stimulator Control/100%.
For CD3 conditions EC50 and Emax of the fitted sigmoidal curve were reported. If no curve could be fitted, the EC50 was reported as blank field and the Emax was based on individual data points. […] Compounds which activate unstimulated cells (see IL2 measurements) or compounds which negatively affected viability were flagged.

[3] = target: DGKalpha (hDGKalpha(1-735)-N-His) (Homo sapiens (Human), UniProt P23743); assay: In vitro DGK inhibition assay, ADP-Glo (in house), DGKalpha; format: biochemical; details: DLG liposomes, 25 μM ATP, 4 nM enzyme, 1 hour reaction
Sequence of DGKalpha (hDGKalpha(1-735)-N-His) (P23743 whole entry): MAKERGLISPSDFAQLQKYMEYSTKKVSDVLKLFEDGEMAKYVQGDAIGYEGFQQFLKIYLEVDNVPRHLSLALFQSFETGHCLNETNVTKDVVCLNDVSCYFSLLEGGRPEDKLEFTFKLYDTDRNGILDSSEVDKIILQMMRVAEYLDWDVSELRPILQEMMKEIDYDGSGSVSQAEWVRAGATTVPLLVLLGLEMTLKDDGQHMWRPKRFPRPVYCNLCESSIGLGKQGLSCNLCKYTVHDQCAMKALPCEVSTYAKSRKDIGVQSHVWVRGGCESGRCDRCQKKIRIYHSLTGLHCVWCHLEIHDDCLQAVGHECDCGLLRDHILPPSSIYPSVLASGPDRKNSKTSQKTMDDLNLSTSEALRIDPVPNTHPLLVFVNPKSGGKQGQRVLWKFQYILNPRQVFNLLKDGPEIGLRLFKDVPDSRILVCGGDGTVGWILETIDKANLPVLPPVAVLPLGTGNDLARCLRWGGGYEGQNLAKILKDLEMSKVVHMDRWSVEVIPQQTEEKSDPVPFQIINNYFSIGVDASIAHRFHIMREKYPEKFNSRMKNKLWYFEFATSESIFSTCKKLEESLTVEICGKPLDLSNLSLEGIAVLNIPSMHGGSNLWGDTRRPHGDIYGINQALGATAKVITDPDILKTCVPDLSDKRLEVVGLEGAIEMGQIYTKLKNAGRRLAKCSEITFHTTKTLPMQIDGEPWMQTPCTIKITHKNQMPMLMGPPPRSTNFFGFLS
Description: DGK α and ζ kinases use ATP to phosphorylate the substrate 1,2-dilauroyl-sn-glycerol (DLG, incorporated in the liposomes). ATP is converted to ADP as a result of this enzymatic reaction.
After the kinase reaction, an ATP-depletion reagent is added to terminate the kinase reaction and deplete any remaining ATP, leaving only ADP. Second, a detection reagent is added to simultaneously convert ADP to ATP and allow the newly synthesized ATP to be converted to light using a coupled luciferase/luciferin reaction.
Purification of both enzymes was performed as previously described by Takahashi et al., PeerJ, 2018 (Takahashi, D.; Sakane, F. Expression and purification of human diacylglycerol kinase alpha from baculovirus-infected insect cells for structural studies. PeerJ 2018, 6, No. e5449).
A concentrated liposome solution was prepared in assay buffer without DTT and BSA: 2 mM of DLG in 21 mM of total liposome (2 mM DLG/8 mM PS/11 mM PC). The reaction mixtures contain the assay buffer with a final DLG concentration of 125 uM ATP concentrations of 25 μM (for DGKA assay) or 50 μM (for DGKZ assay). The reactions were started by addition of DGK α and ζ kinases at 4 nM and 2 nM final concentrations, respectively. After 1 hour reaction, the amount of ADP formed was detected with the ADP-Glo kinase assay (Promega) according to the manufacturer instructions. Compounds were added in 11-points dose response, starting at […], 1:3 dilutions, with a final DMSO concentration of 2%. The multidrop combi was used as a liquid handler and luminescence was read with 0.5 s by the envision reader (PE).

Row | Compound | EC50 (primary human T-cells [1]; Homo sapiens, T-cell) | Emax IL2 (% activation) (primary human T-cells [1]) | EC50 (primary human T-cells [2]; Homo sapiens, T-cell, 120 h) | IC50 [3] | EC50 (primary human T-cells [1]) | EC50 (primary human T-cells [2])
1 | Cc1ncc(-c2cc3c(cc2F)S(=O)(=O)C[C@H](N)C(=O)N3Cc2ccc(Cl)cc2)cc1C(C)(C)C [Example 16, (3R)-3-amino-7-(5-tert-butyl-6-methyl-3-pyridyl)-5-[(4-chlorophenyl)methyl]-8-fluoro-1,1-dioxo-2,3-dihydro-1λ6,5-benzothiazepin-4-one] | 1110 nM | 87 % activation | 36 nM |  |  | 
2 | (3R)-3-amino-5-(4-chlorobenzyl)-8-fluoro-1,1-diketo-7-[5-(trifluoromethoxy)-3-pyridyl]-2,3-dihydro-1λ6,5-benzothiazepin-4-one [Example 5] |  | 100 % activation |  | > 62500 nM | 604 nM | 319 nM
3 | N[C@H]1CS(=O)(=O)c2cc(F)c(-c3nccc(C(F)(F)F)n3)cc2N(Cc2ccc(Cl)cc2)C1=O [Example 10, (3R)-3-amino-5-[(4-chlorophenyl)methyl]-8-fluoro-1,1-dioxo-7-[4-(trifluoromethyl)pyrimidin-2-yl]-2,3-dihydro-1λ6,5-benzothiazepin-4-one] | 1820 nM | 44 % activation | 3570 nM |  |  | 
4 | CS(=O)(=O)C1(c2cnnc(-c3cc4c(cc3F)S(=O)(=O)C[C@H](N)C(=O)N4Cc3ccc(Cl)cc3)n2)CC1 [Example 19, (3R)-3-amino-5-[(4-chlorophenyl)methyl]-8-fluoro-7-[5-(1-methylsulfonylcyclopropyl)-1,2,4-triazin-3-yl]-1,1-dioxo-2,3-dihydro-1λ6,5-benzothiazepin-4-one] | 5710 nM | 45 % activation | 2090 nM |  |  | 
5 | COc1cc(-c2cc3c(cc2F)S(=O)(=O)C[C@H](N)C(=O)N3Cc2ccc(Cl)cc2)cnn1 [Example 6, (3R)-3-amino-5-[(4-chlorophenyl)methyl]-8-fluoro-7-(6-methoxypyridazin-4-yl)-1,1-dioxo-2,3-dihydro-1λ6,5-benzothiazepin-4-one] | > 10000 nM | 14 % activation | 1410 nM |  |  | 

Further lines, with some results ahead:

Row | EC50 (primary human T-cells [1]; Homo sapiens, T-cell) | Compound | Emax IL2 (% activation) (primary human T-cells [1]) | EC50 (primary human T-cells [2]; Homo sapiens, T-cell, 120 h) | IC50 [3] | EC50 (primary human T-cells [1]) | EC50 (primary human T-cells [2])
6 | 829 nM | CC(C)(C)c1cc(-c2cc3c(cc2F)S(=O)(=O)C[C@H](N)C(=O)N3Cc2ccc(Cl)cc2)ccn1 [Example 3, (3R)-3-amino-7-(2-tert-butyl-4-pyridyl)-5-[(4-chlorophenyl)methyl]-8-fluoro-1,1-dioxo-2,3-dihydro-1λ6,5-benzothiazepin-4-one] | 56 % activation | 1510 nM |  |  | 
7 | 1650 nM | CCN(CC)c1cnnc(-c2cc3c(cc2F)S(=O)(=O)C[C@H](N)C(=O)N3Cc2ccc(Cl)cc2)n1 [Example 15, (3R)-3-amino-5-[(4-chlorophenyl)methyl]-7-[5-(diethylamino)-1,2,4-triazin-3-yl]-8-fluoro-1,1-dioxo-2,3-dihydro-1λ6,5-benzothiazepin-4-one] | 79 % activation | 1710 nM |  |  | 
8 | 2240 nM | CC(C)(C)c1cc(-c2cc3c(cc2F)S(=O)(=O)C[C@H](N)C(=O)N3Cc2ccc(Cl)cc2)ncn1 [Example 4, (3R)-3-amino-7-(6-tert-butylpyrimidin-4-yl)-5-[(4-chlorophenyl)methyl]-8-fluoro-1,1-dioxo-2,3-dihydro-1λ6,5-benzothiazepin-4-one] | 81 % activation | 408 nM |  |  | 
9 | 1630 nM | CC(C)Oc1ccc(CN2C(=O)[C@@H](N)CS(=O)(=O)c3cc(F)c(-c4nncc(C(C)(C)C)n4)cc32)cc1 [Example 14, (3R)-3-amino-7-(5-tert-butyl-1,2,4-triazin-3-yl)-8-fluoro-5-[(4-isopropoxyphenyl)methyl]-1,1-dioxo-2,3-dihydro-1λ6,5-benzothiazepin-4-one] | 73 % activation | 254 nM |  |  | 
